Laboratory results: US9650390B2, “Water-soluble taxane derivatives and uses thereof” (priority 2014, dated 2017)

Legend:
[1] = system: human prostate cancer PC-3; assay: Inhibitory activity of cabazitaxel derivatives on subcutaneously xenografted tumor PC-3 in nude mice; conditions: D0 IV; for T/C (%) D20 / Tumor volume (mm^3) (D20) / Tumor inhibitory percent (%) D20 / Tumor volume (mm^3) (D0): PC-3 xenograft in nude mice; for Tumor inhibitory percent (%) D20: P = 0.000 vs control; for Tumor volume (mm^3) (D0): baseline at grouping (D0); for Weight change (%) D6: nude mice
[2] = In vitro dissociation in blood plasma of rat; format: in vitro ADME, SD rats; conditions: fresh SD rat plasma, 37° C.; for Sampling time/Dissociation percent (%) 2 min: 2 min incubation; for Sampling time/Dissociation percent (%) 5 min: 5 min incubation; for Sampling time/Dissociation percent (%) 10 min: 10 min incubation
Experimental: The obtained water soluble taxane derivatives of the following formulae were formulated as 0.2 mg/ml aqueous solutions. […] After 2 min, 5 min and 10 min of incubation, 0.2 ml of solutions were respectively taken from each of the samples, and added to acetonitrile (0.4 ml) cooled to −20° C. for precipitation of protein.

[3] = In vitro dissociation in blood plasma of rabbit; format: in vitro ADME, New Zealand white rabbits; conditions: fresh New Zealand white rabbit plasma, 37° C.
Experimental: The obtained water soluble taxane derivatives of the following formulae were formulated as 0.2 mg/ml aqueous solutions. […]

[4] = system: human ovarian cancer SK-OV-3; conditions: 24 mg/kg, D0-4 IV; for Body weight change (%) D4: nude mice

Row | Weight change (%) D6 ([1]; 7 mg/kg) | SMILES | T/C (%) D20 ([1]; 13 mg/kg) | Tumor volume (mm^3) (D20) ([1]; 13 mg/kg) | Tumor inhibitory percent (%) D20 ([1]; 13 mg/kg) | Tumor volume (mm^3) (D0) ([1]; 13 mg/kg) | Weight change (%) D6 ([1]; 13 mg/kg) | Sampling time/Dissociation percent (%) 2 min [2] | Sampling time/Dissociation percent (%) 5 min [2] | Sampling time/Dissociation percent (%) 10 min [2] | Sampling time/Dissociation percent (%) 2 min [3] | Sampling time/Dissociation percent (%) 5 min [3] | Sampling time/Dissociation percent (%) 10 min [3] | Body weight change (%) D4 [4] | T/C (%) D22 ([4]; SK-OV-3 xenograft in nude mice) | Tumor volume (mm^3) (D0) ([4]; baseline at grouping (D0), SK-OV-3 xenograft in nude mice) | Tumor volume (mm^3) (D22) ([4]; SK-OV-3 xenograft in nude mice) | T/C (%) D20 ([1]; 7 mg/kg) | Tumor volume (mm^3) (D20) ([1]; 7 mg/kg) | Tumor inhibitory percent (%) D20 ([1]; 7 mg/kg) | Tumor volume (mm^3) (D0) ([1]; 7 mg/kg)
1 |  | CO[C@H]1C(=O)[C@]2(C)[C@@H](OC)C[C@H]3OC[C@@]3(OC(C)=O)[C@H]2[C@H](OC(=O)c2ccccc2)[C@]2(O)C[C@H](OC(=O)[C@H](OC(=O)[C@H](F)CCN(C)C(C)C)[C@@H](NC(=O)OC(C)(C)C)c3ccccc3)C(C)=C1C2(C)C.Cl [Compound C34, 2′-O-[4-N-methyl-N-isopropylamino-2(R)-fluorobutyryl]cabazitaxel hydrochloride] | −45% | 42.8 ± 11.9 mm^3 | 101% | 111.7 ± 3.2 mm^3 |  |  |  |  |  |  |  |  |  |  |  |  |  |  | 
2 |  | CCN(CC)CC[C@@H](F)C(=O)O[C@@H](C(=O)O[C@H]1C[C@@]2(O)[C@@H](OC(=O)c3ccccc3)[C@@H]3[C@]4(OC(C)=O)CO[C@@H]4C[C@H](OC)[C@@]3(C)C(=O)[C@H](OC)C(=C1C)C2(C)C)[C@@H](NC(=O)OC(C)(C)C)c1ccccc1.CS(=O)(=O)O [Compound C33, 2′-O-[4-N,N-diethylamino-2(R)-fluorobutyryl]cabazitaxel methanesulfonate] | −50% | 38.6 ± 13.4 mm^3 | 114% | 112.0 ± 2.4 mm^3 | −15.1% |  |  |  |  |  |  |  |  |  |  |  |  |  | 
3 |  | CC(=O)O[C@H]1C(=O)[C@@]2(C)[C@H]([C@H](OC(=O)c3ccccc3)[C@]3(O)C[C@H](OC(=O)[C@H](OC(=O)[C@H](F)CCN(C)C)[C@@H](NC(=O)c4ccccc4)c4ccccc4)C(C)=C1C3(C)C)[C@]1(OC(C)=O)CO[C@@H]1C[C@@H]2O.CS(=O)(=O)O [Compound C1, 2′-O-[4-N,N-dimethylamino-2(R)-fluorobutyryl]paclitaxel methanesulfonate] |  |  |  |  |  | 64.3% | 97.0% | 100% | 77.2% | 98.4% | 100% | −5.9% | −63% | 133.6 ± 9.5 mm^3 |  |  |  |  | 
4 |  | CO[C@H]1C(=O)[C@]2(C)[C@@H](OC)C[C@H]3OC[C@@]3(OC(C)=O)[C@H]2[C@H](OC(=O)c2ccccc2)[C@]2(O)C[C@H](OC(=O)[C@H](OC(=O)[C@@H](CCN(C)C)C(F)F)[C@@H](NC(=O)OC(C)(C)C)c3ccccc3)C(C)=C1C2(C)C.Cc1ccc(S(=O)(=O)O)cc1 [Compound C36, 2′-O-[4-N,N-dimethylamino-2(R)-2-difluoromethylbutyryl]cabazitaxel p-toluene sulfonate] | −37% |  | 85% |  |  |  |  |  |  |  |  |  |  |  |  |  |  |  | 
5 |  | CCN(C)CC[C@@H](F)C(=O)O[C@@H](C(=O)O[C@H]1C[C@@]2(O)[C@@H](OC(=O)c3ccccc3)[C@@H]3[C@]4(OC(C)=O)CO[C@@H]4C[C@H](OC)[C@@]3(C)C(=O)[C@H](OC)C(=C1C)C2(C)C)[C@@H](NC(=O)OC(C)(C)C)c1ccccc1.O=C(O)/C=C\C(=O)O [Compound C32, 2′-O-[4-N-methyl-N-ethylamino-2(R)-fluorobutyryl]cabazitaxel maleate] | −56% | 35.8 ± 12.7 mm^3 | 128% | 112.4 ± 3.0 mm^3 | −14.7% |  |  |  |  |  |  |  |  |  |  |  |  |  | 
6 |  | CC(=O)O[C@H]1C(=O)[C@@]2(C)[C@H]([C@H](OC(=O)c3ccccc3)[C@]3(O)C[C@H](OC(=O)[C@H](OC(=O)C(F)CCN(C)C)[C@@H](NC(=O)c4ccccc4)c4ccccc4)C(C)=C1C3(C)C)[C@]1(OC(C)=O)CO[C@@H]1C[C@@H]2O.CS(=O)(=O)O (stereo partly drawn) [Compound C3, 2′-O-[4-N,N-dimethylamino-2(R,S)-fluorobutyryl]paclitaxel methanesulfonate] |  |  |  |  |  | 63.7% | 96.8% | 100% | 76.5% | 94.6% | 100% | −6.0% | −64% |  | 50.6 ± 9.7 mm^3 |  |  |  | 
7 |  | CC(=O)O[C@H]1C(=O)[C@@]2(C)[C@H]([C@H](OC(=O)c3ccccc3)[C@]3(O)C[C@H](OC(=O)[C@H](OC(=O)[C@@H](F)CCN(C)C)[C@@H](NC(=O)c4ccccc4)c4ccccc4)C(C)=C1C3(C)C)[C@]1(OC(C)=O)CO[C@@H]1C[C@@H]2O.CS(=O)(=O)O [Compound C2, 2′-O-[4-N,N-dimethylamino-2(S)-fluorobutyryl]paclitaxel methanesulfonate] |  |  |  |  |  | 62.8% | 96.5% | 100% | 69.7% | 98.1% | 100% | −5.8% | −61% |  | 51.2 ± 11.2 mm^3 |  |  |  | 
8 |  | CO[C@H]1C(=O)[C@]2(C)[C@@H](OC)C[C@H]3OC[C@@]3(OC(C)=O)[C@H]2[C@H](OC(=O)c2ccccc2)[C@]2(O)C[C@H](OC(=O)[C@H](OC(=O)[C@H](F)CCN(C)C)[C@@H](NC(=O)OC(C)(C)C)c3ccccc3)C(C)=C1C2(C)C.CS(=O)(=O)O [Compound C7, 2′-O-[4-N,N-dimethylamino-2(R)-fluorobutyryl]cabazitaxel methanesulfonate] | −67% | 31.5 ± 11.8 mm^3 | 154% | 111.5 ± 2.2 mm^3 | −14.2% | 49.7% | 88.9% | 100% | 78.4% | 94.8% | 100% |  |  |  |  |  |  |  | 
9 |  | CO[C@H]1C(=O)[C@]2(C)[C@@H](OC)C[C@H]3OC[C@@]3(OC(C)=O)[C@H]2[C@H](OC(=O)c2ccccc2)[C@]2(O)C[C@H](OC(=O)[C@H](OC(=O)C(F)CCN(C)C)[C@@H](NC(=O)OC(C)(C)C)c3ccccc3)C(C)=C1C2(C)C.CS(=O)(=O)O (stereo partly drawn) [Compound C9, 2′-O-[4-N,N-dimethylamino-2(R,S)-fluorobutyryl]cabazitaxel methanesulfonate] | −66% | 32.5 ± 11.6 mm^3 | 151% | 111.4 ± 2.3 mm^3 | −14.4% | 49.3% | 88.6% | 100% | 81.2% | 96.7% | 100% |  |  |  |  |  |  |  | 
10 |  | CO[C@H]1C(=O)[C@]2(C)[C@@H](OC)C[C@H]3OC[C@@]3(OC(C)=O)[C@H]2[C@H](OC(=O)c2ccccc2)[C@]2(O)C[C@H](OC(=O)[C@H](OC(=O)[C@@H](CCN(C)C)C(F)(F)F)[C@@H](NC(=O)OC(C)(C)C)c3ccccc3)C(C)=C1C2(C)C.CS(=O)(=O)O [Compound C35, 2′-O-[4-N,N-dimethylamino-2(R)-2-trifluoromethylbutyryl]cabazitaxel methanesulfonate] | −46% | 42.3 ± 12.6 mm^3 | 105% | 110.2 ± 4.6 mm^3 | −15.8% |  |  |  |  |  |  |  |  |  |  |  |  |  | 
11 |  | CO[C@H]1C(=O)[C@]2(C)[C@@H](OC)C[C@H]3OC[C@@]3(OC(C)=O)[C@H]2[C@H](OC(=O)c2ccccc2)[C@]2(O)C[C@H](OC(=O)[C@H](OC(=O)[C@@H](F)CCN(C)C)[C@@H](NC(=O)OC(C)(C)C)c3ccccc3)C(C)=C1C2(C)C.CS(=O)(=O)O [Compound C8, 2′-O-[4-N,N-dimethylamino-2(S)-fluorobutyryl]cabazitaxel methanesulfonate] | −66% | 32.1 ± 12.1 mm^3 | 151% | 111.9 ± 2.0 mm^3 | −14.4% | 49.4% | 88.4% | 100% | 85.6% | 94.5% | 100% |  |  |  |  |  |  |  | 
12 | −13.8% | CO[C@H]1C(=O)[C@]2(C)[C@@H](OC)C[C@H]3OC[C@@]3(OC(C)=O)[C@H]2[C@H](OC(=O)c2ccccc2)[C@]2(O)C[C@H](OC(=O)[C@H](O)[C@@H](NC(=O)OC(C)(C)C)c3ccccc3)C(C)=C1C2(C)C [cabazitaxel, reference compound] |  |  |  |  |  |  |  |  |  |  |  |  |  |  |  | −27% | 79.9 ± 24.8 mm^3 | 127% | 111.7 ± 1.8 mm^3
